One series relates to Trypanosoma cruzi. As to the kind of experiment: Trypanocidal activity against Trypanosoma cruzi Y bloodstream trypomastigotes in presence of 10% mouse blood assessed as induction of parasite lysis incubated for 24 hrs by Neubauer chamber based cell counting method. Type of series: functional, organism-based.
A short description of series [1]: Toxicity against mouse HMC incubated for 24 hrs. Conditions: HMC cells, read-out: LC50.
Series [2] is described as follows: Selectivity index, ratio of LC50 for mouse HMC to IC50 for Trypanosoma cruzi Y bloodstream trypomastigotes.

Structures are written as SMILES.

In ChEMBL document CHEMBL3593167, “Synthesis and anti-Trypanosoma cruzi activity of new 3-phenylthio-nor-β-lapachone derivatives” (Bioorg Med Chem, 2015) one finds IC50, CC50 and Ratio LC50/IC50 data, which are given here for seven molecules.

For orientation: IC50 means the point on the concentration scale where inhibition reaches its midpoint.

For `Cc1ccc(SC2C3=C(OC2(C)C)c2ccccc2C(=O)C3=O)cc1` (stereo not given), the IC50 in the series on Trypanosoma cruzi amounted to 59.5 µM. In addition, in series [1], the CC50 at 24 h turned out to be 20.5 µM. The Ratio LC50/IC50 in series [2] was determined as 0.34.
The matching figures for `Cc1cccc(SC2C3=C(OC2(C)C)c2ccccc2C(=O)C3=O)c1` (stereo not given): 83.6 µM, 25.8 µM and 0.31.
Take `CC1(C)OC2=C(C(=O)C(=O)c3ccccc32)C1Sc1c(F)c(F)c(F)c(F)c1F` (stereo not given): the IC50 in the series on Trypanosoma cruzi came to 183 µM.
As for `CC1(C)OC2=C(C(=O)C(=O)c3ccccc32)C1Sc1ccc(F)cc1` (stereo not given), in the series on Trypanosoma cruzi, the IC50 turned out to be 165 µM.
Take `CC1(C)OC2=C(C(=O)C(=O)c3ccccc32)C1Sc1ccc(Cl)cc1` (stereo not given): the IC50 in the series with Trypanosoma cruzi was found to be 9.2 µM. In series [1], the CC50 at 24 h worked out at 38.9 µM. Also, in series [2], the Ratio LC50/IC50 was 4.23.
As for `COc1ccc(SC2C3=C(OC2(C)C)c2ccccc2C(=O)C3=O)cc1` (stereo not given), the IC50 in the series with Trypanosoma cruzi is 158 µM.
Consider `CC1(C)OC2=C(C(=O)C(=O)c3ccccc32)C1Sc1ccccc1` (stereo not given), for which the IC50 in the series with Trypanosoma cruzi came out at 32.3 µM. In addition, the CC50 at 24 h in series [1] amounted to 17.5 µM. Besides, in series [2], the Ratio LC50/IC50 came out at 0.54.
